From US9999616B2 (ZENITH EPIGENETICS LTD., priority 2013, dated 2018)

Test system: IL-6 and IL-17 and MCP-1 cytokines
Assay: In vivo efficacy in mouse endotoxemia model
Conditions: C57/Bl6 mice, 75 mg/kg oral, LPS 0.5 mg/kg i.p.
Experimental: Sub lethal doses of Endotoxin (E. Coli bacterial lipopolysaccharide) are administered to animals to produce a generalized inflammatory response which is monitored by increases in secreted cytokines. Compounds are administered to C57/Bl6 mice at T=4 hours orally at 75 mg/kg dose to evaluate inhibition in IL-6 and IL-17 and MCP-1 cytokines post 3-h challenge with lipopolysaccharide (LPS) at T=0 hours at 0.5 mg/kg dose intraperitoneally.

## Cc1noc(C)c1-c1cc(-c2c(C)noc2C)c2nc[nH]c2c1 [Example Compound 1, 4,4′-(1H-benzo[d]imidazole-4,6-diyl)bis(3,5-dimethylisoxazole)]
  In vivo activity: Active
